Assay results from patent US5137720A, “Antiviral combination, and method of treatment” (Ciba-Geigy Corporation, priority 1988, dated 1992).

Experiments:
HSV-2/MS = experiment: Herpes genitalis in the guinea pig, local lesion scores; type: in vivo, guinea pigs of the Pirbright strain
Protocol: Female albino guinea-pigs of the Pirbright strain, weighing 200-300 g, are infected intravaginally after gentle opening of the introitus vaginae with a forceps. Thereafter, pieces of fibrin foam (SEVAC, Prague) measuring 5×5×4 mm are impregnated with 0.05 ml containing about 10^4 PFU of HSV 2/MS from cultures in HEL. These pieces are introduced intravaginally (1-2). The animals are kept in groups of 4-5 in type 4 Macrolon cages.
Three days after infection, by which time the local symptomatology scores (see below) range from 3 to 6 in about 90% of the animals, these animals are divided at random into groups of 10-15 per preparation and untreated control. Treatment is started 72 hours after infection and administered twice daily for 5 days. One tenth of a milliliter is applied intravaginally and 0.1 ml extravaginally.
From the 3rd day onwards, the local symptoms are evaluated thrice weekly. The criteria applied in assessing the therapeutic effects of treatment are the rate and the degree of regression of overt signs of infection in the individual animals. The degree and severity of local symptoms are scored according to the following points system:
The number indicated in the following Table of female albino guinea pigs of the Pirbright strain (150-180 g body weight) are infected intravaginally with ~10^4 PFU (plaque-forming units) of herpes simplex type 2 virus, cultivated in HEL (human embryonal lungs) cells, as described in B. Lukas et al., Arch. ges. Virusforsch. 44, 153-155 (1974).
Beginning 72 h after infection, animals are treated intravaginally twice a day for 5 days with 0.2 ml of a gel containing one of the following: i) alpha interferon B1 D2 B3 B4 at 1.5×10^6 units/kg; ii) Liposome-encapsulated MTP-PE at 1 mg/kg and iii) a mixture of both. Guinea pigs receiving placebo treatment are given a gel without active ingredients.

[1] = Body distribution of liposomes following i.v. administration; type: in vivo; conditions: rodents
Protocol: Alpha interferon is diluted in calcium and magnesium free PBS, and 2.5 ml is used to reconstitute 250 mg lyophilized synthetic lipids (POPC/OOPS, 7:3 molar ratio) containing 1 mg MTP-PE. This mixture is vigorously shaken in a Vortex mixer for 2 minutes and allowed to stand for 30 minutes prior to revortexing and the addition of another 2.5 ml of PBS. It is found (using I^125 labelled alpha interferon) that approximately 20% of the interferon is bound to liposomes following this reconstitution procedure. Liposomes prepared in this manner have the same physical properties as liposomes containing only MTP-PE and appear to follow the same body distribution profile following i.v. administration in rodents. Approximately 2-3 times more MTP-PE and interferon reach the lung when both substances are incorporated into liposomes as compared to unencapsulated forms.

rat alveolar macrophages = experiment: In vitro alveolar macrophage-mediated cytotoxicity against MADB-200 tumor cells (crystal violet); type: cell-based; conditions: interferon 0
Protocol: Macrophage-mediated cytotoxicity was assessed against syngeneic MADB-200 adenocarcinoma target cells available from the American Type Culture Collection, ATCC. These cells were maintained as monolayer cultures in MEM supplemented with 10% fetal calf serum. Cultures were maintained at 37° C. in a humidified atmosphere containing 5% CO2. Cultures were routinely tested for the presence of mycoplasma.
Alveolar macrophages (AM) were collected by transtracheal lavage (Brownbill and Schumann, Cancer Immunol. Immunother. 20, 11-17, 1985). The cells recovered from lavage fluids were centrifuged at 400× g for 10 minutes, suspended in serum-free medium, and plated into 96-well Microtest II plastic tissue culture dishes at 5×10^4 cells per well. After incubation for 60 minutes, cells were washed with HBSS to remove non-adherent […].
Purified cultures of rat alveolar macrophages were incubated at 37° C. for 1 hour with 0.2 ml of control medium, recombinant alpha B1 D2 B3 B4, MTP-PE, or a combination of alpha B1 D2 B3 B4 and MTP-PE. To these treated cells, 5×10^3 MADB-200 tumor cells were added and allowed to incubate for 72 hours at 37° C. Thus, 50,000 macrophages were incubated with 5000 tumor cells.
A colorimetric assay using crystal violet staining of remaining MADB-200 tumor cells was used to determine macrophage cytotoxicity (Brownbill and Schumann, Cancer Immunol. Immunother. 20, 11-17, 1985). Briefly, following incubation, wells are washed with HBSS and the remaining cells fixed with formalin and stained with crystal violet. Each well is thoroughly washed after staining, the cells decolorized with alcohol, and the extract read with a colorimeter. The % cytotoxic activity of alveolar macrophages was calculated as follows: [formula]

SMILES: CCCCCCCCCCCCCCCC(=O)OC[C@H](COP(=O)([O-])OCCNC(=O)[C@H](C)NC(=O)CC[C@@H](NC(=O)[C@H](C)NC(=O)[C@@H](C)O[C@H]1[C@H](O)[C@@H](CO)O[C@@H](O)[C@@H]1NC(C)=O)C(N)=O)OC(=O)CCCCCCCCCCCCCCC.[Na+] [MTP-PE, N-acetyl-muramyl-L-alanyl-D-isoglutaminyl-L-alanine-2-(1,2-di-palmitoyl-sn-glycero-3-hydroxyphosphoryloxy)-ethylamide-sodium salt]
- Mean Lesion Score ± Standard Error (HSV-2/MS; day 3 after infection (start of treatment), gel intravaginally twice a day for 5 days, interferon 1.5×10^6 units/kg, liposome-encapsulated MTP-PE 1 mg/kg): 1.9 ± 0.23
- Mean Lesion Score ± Standard Error (HSV-2/MS; day 5 after infection, same treatment): 2.8 ± 1.15
- Mean Lesion Score ± Standard Error (HSV-2/MS; day 7 after infection, same treatment): 4.3 ± 1.32
- Mean Lesion Score ± Standard Error (HSV-2/MS; day 10 after infection, same treatment): 4.0 ± 1.93
- Mean Lesion Score ± Standard Error (HSV-2/MS; day 12 after infection, same treatment): 4.3 ± 1.42
- Mean Lesion Score ± Standard Error (HSV-2/MS; day 14 after infection, same treatment): 4.3 ± 1.42
- Mean Lesion Score ± Standard Error (HSV-2/MS; day 17 after infection, same treatment): 3.0 ± 1.60
- amount reaching the lung, both substances incorporated into liposomes as compared to unencapsulated forms [1]: 2-3 times
- % Cytotoxicity (rat alveolar macrophages; MTP-PE alone 0.01 μg/ml): 0%
- % Cytotoxicity (rat alveolar macrophages; MTP-PE alone 0.03 μg/ml): 7%
- % Cytotoxicity (rat alveolar macrophages; MTP-PE alone 0.1 μg/ml): 10%
